Read-outs that look alike come from different tables or passages of the source.
Key:
NFκB [1] = assay: NFκB inhibition assay (2 h), NFκB-dependent nanoluc luciferase reporter; assay type: cell-based, human; conditions: Homo sapiens; NFκB-MDA-MB-231-nanoluc cells, 2-h treatment, mean ± SD; read-out: NFκB Inhibition 2 h IC50
Experimental: Experiments were performed according to the published protocol. On day 1, 4 × 10^4 NFκB-MDA-MB-231-nanoluc cells were seeded into white 96 well plates (Greiner; #655098). On day 2, the medium was replaced with starvation medium and the cells were pre-incubated for 20 min with either 100 µL of DMSO (Roth; #A994.1) alone at a concentration of maximal 0.1% or with the final concentration of the diluted compounds (Table 3). To activate NFκB signaling, cells were stimulated with 1 µg/mL LPS (Sigma-Aldrich; #L2630) beforehand. NFκB-dependent luciferase activity was measured according to the manufacturer`s protocol for the Nano-Glo Luciferase Assay System (Promega, Mannheim, Germany; #N1110). NFκB-dependent luminescence was determined as relative light units (RLU) using the microplate reader Spark® (Tecan, Männedorf, Switzerland).

NFκB [2] = assay: NFκB inhibition assay (24 h), NFκB-dependent firefly luciferase reporter; assay type: cell-based; conditions: Homo sapiens; NFκB-MDA-MB-231-firefly cells, 24-h treatment, 20 ng/mL TNFα, mean ± SD; read-out: NFκB Inhibition 24 h IC50
Experimental: On day 1, 3 × 10^4 NFκB MDA-MB-231-firefly cells were seeded into white 96 well plates (Greiner; #655098). On day 2, the medium was replaced with starvation medium and the cells were pre-incubated for 20 min with either 100 µL of DMSO (Roth; #A994.1) alone at maximal 0.1%, or with the final concentration of the diluted compounds (Table 3). To activate NFκB signaling, cells were stimulated with 20 ng/mL TNFα (Peprotech, Hamburg, Germany; #300-01A). Cell lysis was performed in 20 µL 1× cell lysis buffer according to the manufacturer’s instruction for the Luciferase Assay System (Promega #E1500). NFκB-dependent luminescence was determined as relative light units (RLU) using the microplate reader Spark® (Tecan).

MDA-MB-231 = assay: 2D cell viability (PrestoBlue resazurin) in MDA-MB-231; assay type: cell-based, human; conditions: Homo sapiens
Experimental: Cell viability was determined based on resazurin-reduction in viable cells according to the PrestoBlue^TM Assay. On day 1, MDA-MB-231 (1.5 × 10^4 cells per well or 7.5 × 10^3 cells per well) were seeded into black 96 well plates (Greiner; #655090) in a total volume of 100 µL. On day 2, the compounds or DMSO (Roth; #A994.1) alone at maximal 0.1% were applied (final concentrations after serial dilution shown in Table 3). An amount of 20 µM staurosporine (Sigma-Aldrich; #S5921) served as a positive control. On day 3, the PrestoBlue^TM reagent (Invitrogen^TM, Darmstadt, Germany; #A13262) was applied according to the manufacturer`s instructions. Finally, cell viability-dependent fluorescence was recorded in relative fluorescence units (RFU) with excitation/emission (Exλ/Emλ) at 535/590 nm or 560/590 nm, using the microplate reader Spark® (Tecan).

[3] = system: 3D co-culture spheroids of MDA-MB-231 and primary murine CAFs; assay: 3D cell viability (ATP content) in TNBC co-culture spheroids; assay type: cell-based, human MDA-MB-231; conditions: Mus musculus, MDA-MB-231
Experimental: On day 1, 3000 cells were seeded into a low-attachment 96 well plate (Greiner; #650970). […] Cell viability was determined based on the ATP content in viable cells according to the manufacturer`s instructions (Promega #G9682). Co-culture spheroids were generated for 72 h before they were grown for another 72 h with or without exposure to the compounds. […] Cell viability-dependent luminescence was determined as relative light units (RLU) using the microplate reader Spark® (Tecan).

[4] = system: 3D co-culture spheroids of MDA-MB-231 and primary murine CAFs; assay: 3D growth studies, spheroid size of co-culture spheroids; assay type: cell-based, human MDA-MB-231; conditions: 100 nM, 72 h
Experimental: To emulate the TNBC microenvironment, 3D spheroids composed of MDA-MB-231 and CAFs at a ratio of 1:2 in a collagen-based matrix were generated. The culture medium of both cell lines was mixed (DMEM:RPMI 1640 (1:1) + 12.5% FCS + 1% PS) and supplemented with 0.05 mg/mL collagen type I (Thermo Fisher Scientific; #A1048301). On day 1, 3000 cells were seeded into a low-attachment 96 well plate (Greiner; #650970). Spheroids were grown for 72 h before proceeding with compound treatment on day 4, and analysis on day 7 according to the “Spheroid immunostaining”, “3D cell viability”, or “3D growth” studies presented in the results section.
Co-culture spheroids were generated for 72 h before they were exposed to either DMSO (Roth; #A994.1) alone at maximal 0.1%, 100 nM paclitaxel (Santa Cruz Biotechnology; #sc-201439), or 100 nM of compound (1) for another 72 h. At least three spheroids per treatment group were analyzed. For that purpose, brightfield images of the spheroids were acquired at 100× g magnification using the microscope Axio Vert.A1 (Zeiss). The spheroid surface area was quantified in brightfield images using Fiji (open-source software; version 1.52i) and was further defined as spheroid size. In each individual experiment spheroid size was normalized to the smallest (which was set to 0%) and to the largest spheroids (which was set to 100%).

MDA-MB-468-UnaG [5] = assay: Cell cycle studies (PI-DNA flow cytometry) in MDA-MB-468-UnaG; assay type: cell-based; conditions: normoxia
Experimental: To investigate cell cycle progression in the presence of compound (1s) or paclitaxel (Santa Cruz Biotechnology; #sc-201439), we quantified the DNA content in the cell. On day 1, the cells were seeded in 1 mL into a 24 well plate (Greiner; #662160). On day 2, MDA-MB-468-UnaG were pre-treated either without (normoxia) or with 100 µM CoCl2 (hypoxia) (Sigma-Aldrich; #C8661) for 24 h before compounds were applied. On day 2 for MDA-MB-231 or on day 3 for MDA-MB-468-UnaG, paclitaxel was applied at the concentrations 15 nM, 37 nM, and 100 nM, and compound (1s) was applied at concentrations ranging from 2 nM to 1000 nM. Post-treatment cells were washed in 1× PBS (Thermo Fisher Scientific; #14190); fixed in 70% (v/v) ethanol overnight at 4 °C; washed again in 1× PBS; and, finally, DNA was stained for 15 min at 37 °C in the presence of 10 µg/mL propium iodide (PI; Sigma-Aldrich; #4864) and 100 µg/mL RNase A (Thermo Fisher Scientific; #EN0531) dissolved in 0.1% triton™ X-100 (Sigma-Aldrich; #X100), dissolved in PBS. The fluorescence signal resulting from PI-DNA complex formation was recorded using the flow cytometer CytoFlex (Beckmann Coulter, Krefeld, Germany). The cell cycle phase population was determined based on the DNA content in a set of chromosomes (n) in a cell using the integrated software CytExpert (Beckmann Coulter): sub-G0/G1 (<2n), G0/G1 (2n), S (>2n, <4n), G2/M (4n) or hyperploid cells (>4n) (see Figure S10).

MDA-MB-468-UnaG [6] = assay: 2D cell viability in MDA-MB-468-UnaG under normoxia or CoCl2-simulated hypoxia

Q: `CC(=O)O[C@H]1C(=O)[C@@]2(C)[C@H]([C@H](OC(=O)c3ccccc3)[C@]3(O)C[C@H](OC(=O)[C@H](O)[C@@H](NC(=O)c4ccccc4)c4ccccc4)C(C)=C1C3(C)C)[C@]1(OC(C)=O)CO[C@@H]1C[C@@H]2O` [Paclitaxel, paclitaxel, reference compound] was tested. Which IC50 (NFκB [1]) did it give?
A: Its IC50 is greater than 1000 nM.

Q: What about the IC50 (NFκB [2]) of the same compound?
A: The IC50 was greater than 1000 nM.

Q: What about the IC50 (MDA-MB-231; MDA-MB-231 2D monolayer, 24 h post-treatment, mean ± SD, read-out: Reduction of Cell Viability 24 h IC50) of the same compound?
A: The IC50 was 37.4 ± 8.6 nM.

Q: And the IC50 (MDA-MB-231; MDA-MB-231, 24 h, one individual experiment (Figure S3a), read-out: IC50 of representative dose-response, 2D cell viability)?
A: The IC50 was 36.9 nM.

Q: And the IC50 ([3]; 3D co-culture spheroids, 72 h treatment, mean ± SD (n = 3), read-out: Reduction of Cell Viability 72 h IC50)?
A: Its IC50 is 43 ± 14.3 nM.

Q: And the IC50 ([3]; co-culture spheroids, 72 h, one individual experiment (Figure S3b), read-out: IC50 of representative dose-response, 3D cell viability)?
A: Its IC50 is 42.8 nM.

Q: And the “reduction of spheroid growth compared to untreated spheroids” value [4]?
A: Its value is 25%.

Q: And the “sub-G0/G1 population” value (MDA-MB-468-UnaG [5]; 48 h)?
A: Its value is “increase in the sub-G0/G1 population”.

Q: What about the “cell cycle phase population” value (MDA-MB-468-UnaG [5]; (1s) 20 nM 72 h, paclitaxel within 24 h) of the same compound?
A: Its value is “significantly induces a G2/M arrest”.

Q: And the IC50 (MDA-MB-468-UnaG [6]; 24 h, read-out: cell viability IC50, hypoxia)?
A: Its IC50 is greater than 1000 nM.

Q: What about the “decrease of cytotoxic effects by hypoxia (factor)” value (MDA-MB-468-UnaG [6]; hypoxia vs normoxia, MDA-MB-468-UnaG) of the same compound?
A: The value was no less than 100.

Q: What about the IC50 (MDA-MB-468-UnaG [6]; read-out: cell viability IC50, normoxia) of the same compound?
A: The IC50 was 7.7 nM.

From publication PMC9499467, “Phenanthroindolizidine Alkaloids Isolated from Tylophora ovata as Potent Inhibitors of Inflammation, Spheroid Growth, and Invasion of Triple-Negative Breast Cancer” (International Journal of Molecular Sciences, 2022)
